The CheMixHub viscosity set

Experiment: xn = mol fraction of the nth substance listed

CC(C)CC(C)O (configuration not stated) + CO
298.15 K, 101.33 kPa
Conditions	viscosity [mPa·s]
x2 = 0.1191	3.504
x2 = 0.2078	3.263
x2 = 0.3157	2.847
x2 = 0.4359	2.297
x2 = 0.5125	1.958
x2 = 0.6519	1.459
x2 = 0.7023	1.297
x2 = 0.8038	1.002
x2 = 0.9042	0.7423

CCCCCCCO + CO
viscosity [mPa·s], 101 kPa
Conditions	298.15 K	308.15 K	318.15 K
x2 = 0.05	5.378	3.995	2.975
x2 = 0.1	4.999	3.737	2.809
x2 = 0.15	4.634	3.487	2.647
x2 = 0.2	4.284	3.246	2.488
x2 = 0.25	3.949	3.013	2.332
x2 = 0.3	3.627	2.788	2.179
x2 = 0.35	3.319	2.571	2.028
x2 = 0.4	3.025	2.362	1.88
x2 = 0.45	2.744	2.161	1.735
x2 = 0.5	2.475	1.967	1.592
x2 = 0.55	2.22	1.78	1.453
x2 = 0.6	1.978	1.602	1.317
x2 = 0.65	1.75	1.431	1.184
x2 = 0.7	1.534	1.267	1.056
x2 = 0.75	1.333	1.113	0.9327
x2 = 0.8	1.145	0.9661	0.815
x2 = 0.85	0.9716	0.8284	0.7037
x2 = 0.9	0.8131	0.6998	0.5997
x2 = 0.95	0.6699	0.5807	0.504

CCN(CC)S(C)(=O)=O + CO
303.15 K, 101.33 kPa
Conditions	viscosity [mPa·s]
x1 = 0.065	60400
x1 = 0.1394	73000
x1 = 0.2155	88400
x1 = 0.2885	103400
x1 = 0.3717	123400
x1 = 0.4509	145100
x1 = 0.5148	164500
x1 = 0.5856	187800
x1 = 0.6922	228900
x1 = 0.7686	263600
x1 = 0.8304	295600
x1 = 0.9084	341400

O=C(O)C=Cc1ccccc1 + CO
viscosity [mPa·s]
Conditions	308.15 K	313.15 K	318.15 K	323.15 K
101 kPa, x1 = 0.075	0.8921	–	–	0.7246
101 kPa, x1 = 0.084	0.9758	–	–	0.7679
101 kPa, x1 = 0.0887	1.014	–	–	0.797
101 kPa, x1 = 0.0981	1.092	–	–	0.846
101.33 kPa, x1 = 0.075	0.891	0.8453	0.7855	0.7246
101.33 kPa, x1 = 0.0981	1.092	1.003	0.9163	0.846

CCCCCCCO + COC(=O)OC
Conditions	viscosity [mPa·s]
293.15 K, 101 kPa, x2 = 0.04189	6.005
293.15 K, 101 kPa, x2 = 0.08197	5.163
293.15 K, 101 kPa, x2 = 0.1998	3.52
293.15 K, 101 kPa, x2 = 0.2986	2.615
293.15 K, 101 kPa, x2 = 0.4163	1.928
293.15 K, 101 kPa, x2 = 0.482	1.64
293.15 K, 101 kPa, x2 = 0.6031	1.231
293.15 K, 101 kPa, x2 = 0.7204	0.956
293.15 K, 101 kPa, x2 = 0.7985	0.818
293.15 K, 101 kPa, x2 = 0.9076	0.691
293.15 K, 101 kPa, x2 = 0.9573	0.661
303.15 K, 100 kPa, x2 = 0.0999	3.588
303.15 K, 100 kPa, x2 = 0.2	2.668
303.15 K, 100 kPa, x2 = 0.3001	2.033
303.15 K, 100 kPa, x2 = 0.4	1.59
303.15 K, 100 kPa, x2 = 0.5001	1.275
303.15 K, 100 kPa, x2 = 0.6	1.061
303.15 K, 100 kPa, x2 = 0.7	0.869
303.15 K, 100 kPa, x2 = 0.8	0.707
303.15 K, 100 kPa, x2 = 0.8999	0.609
303.15 K, 101 kPa, x2 = 0.06371	4.012
303.15 K, 101 kPa, x2 = 0.1014	3.549
303.15 K, 101 kPa, x2 = 0.2001	2.661
303.15 K, 101 kPa, x2 = 0.2928	2.07
303.15 K, 101 kPa, x2 = 0.4019	1.583
303.15 K, 101 kPa, x2 = 0.4949	1.282
303.15 K, 101 kPa, x2 = 0.5788	1.071
303.15 K, 101 kPa, x2 = 0.715	0.817
303.15 K, 101 kPa, x2 = 0.7902	0.719
303.15 K, 101 kPa, x2 = 0.9063	0.607
303.15 K, 101 kPa, x2 = 0.9354	0.584
308.15 K, 100 kPa, x2 = 0.0999	3.119
308.15 K, 100 kPa, x2 = 0.2	2.351
308.15 K, 100 kPa, x2 = 0.3001	1.809
308.15 K, 100 kPa, x2 = 0.4	1.434
308.15 K, 100 kPa, x2 = 0.5001	1.149
308.15 K, 100 kPa, x2 = 0.6	0.964
308.15 K, 100 kPa, x2 = 0.7	0.789
308.15 K, 100 kPa, x2 = 0.8	0.66
308.15 K, 100 kPa, x2 = 0.8999	0.57
313.15 K, 100 kPa, x2 = 0.0999	2.725
313.15 K, 100 kPa, x2 = 0.2	2.077
313.15 K, 100 kPa, x2 = 0.3001	1.616
313.15 K, 100 kPa, x2 = 0.4	1.288
313.15 K, 100 kPa, x2 = 0.5001	1.049
313.15 K, 100 kPa, x2 = 0.6	0.875
313.15 K, 100 kPa, x2 = 0.7	0.73
313.15 K, 100 kPa, x2 = 0.8	0.612
313.15 K, 100 kPa, x2 = 0.8999	0.536
313.15 K, 101 kPa, x2 = 0.04009	3.253
313.15 K, 101 kPa, x2 = 0.09588	2.743
313.15 K, 101 kPa, x2 = 0.2155	1.974
313.15 K, 101 kPa, x2 = 0.3104	1.571
313.15 K, 101 kPa, x2 = 0.4052	1.267
313.15 K, 101 kPa, x2 = 0.4938	1.054
313.15 K, 101 kPa, x2 = 0.5968	0.859
313.15 K, 101 kPa, x2 = 0.7024	0.709
313.15 K, 101 kPa, x2 = 0.7953	0.613
313.15 K, 101 kPa, x2 = 0.9018	0.535
313.15 K, 101 kPa, x2 = 0.9477	0.509
318.15 K, 100 kPa, x2 = 0.0999	2.392
318.15 K, 100 kPa, x2 = 0.2	1.847
318.15 K, 100 kPa, x2 = 0.3001	1.454
318.15 K, 100 kPa, x2 = 0.4	1.171
318.15 K, 100 kPa, x2 = 0.5001	0.961
318.15 K, 100 kPa, x2 = 0.6	0.809
318.15 K, 100 kPa, x2 = 0.7	0.683
318.15 K, 100 kPa, x2 = 0.8	0.573
318.15 K, 100 kPa, x2 = 0.8999	0.504
323.15 K, 100 kPa, x2 = 0.0999	2.113
323.15 K, 100 kPa, x2 = 0.2	1.651
323.15 K, 100 kPa, x2 = 0.3001	1.31
323.15 K, 100 kPa, x2 = 0.4	1.068
323.15 K, 100 kPa, x2 = 0.5001	0.885
323.15 K, 100 kPa, x2 = 0.6	0.738
323.15 K, 100 kPa, x2 = 0.7	0.638
323.15 K, 100 kPa, x2 = 0.8	0.539
323.15 K, 100 kPa, x2 = 0.8999	0.476

CS(C)=O + COC(=O)OC
308.15 K, 101 kPa
Conditions	viscosity [mPa·s]
x1 = 0.0596	0.547
x1 = 0.1027	0.57
x1 = 0.1913	0.621
x1 = 0.2791	0.677
x1 = 0.371	0.743
x1 = 0.4598	0.814
x1 = 0.5007	0.853
x1 = 0.5479	0.897
x1 = 0.626	0.983
x1 = 0.7427	1.137
x1 = 0.8572	1.327
x1 = 0.9283	1.47

CCCCC + COC(C)=O
298.15 K, 101 kPa
Conditions	viscosity [mPa·s]
x1 = 0.05	0.342
x1 = 0.1	0.324
x1 = 0.1087	0.322
x1 = 0.15	0.309
x1 = 0.2	0.296
x1 = 0.2088	0.295
x1 = 0.25	0.285
x1 = 0.3	0.275
x1 = 0.3035	0.273
x1 = 0.35	0.266
x1 = 0.4	0.257
x1 = 0.401	0.258
x1 = 0.45	0.25
x1 = 0.5	0.243
x1 = 0.5022	0.243
x1 = 0.55	0.237
x1 = 0.5972	0.232
x1 = 0.6	0.232
x1 = 0.65	0.227
x1 = 0.7	0.223
x1 = 0.7028	0.223
x1 = 0.75	0.22
x1 = 0.8	0.218
x1 = 0.8002	0.219
x1 = 0.85	0.217
x1 = 0.9	0.216
x1 = 0.9009	0.218
x1 = 0.95	0.215

OC1CCCCC1 + COCCO
303.15 K, 101.3 kPa
Conditions	viscosity [mPa·s]
x2 = 0.135	31.36
x2 = 0.232	23.64
x2 = 0.3144	17.36
x2 = 0.4389	9.281
x2 = 0.4908	6.609
x2 = 0.5515	4.075
x2 = 0.9188	0.811

CCOC(=O)C(C)O (configuration not stated) + COCCOCCOCCOCCOC
101 kPa
Conditions	viscosity [mPa·s]
303.15 K, x1 = 0.3998	2.815
308.15 K, x1 = 0.6001	2.385
323.15 K, x1 = 0.8001	1.605

CC(=O)O.NCCO + CS(C)=O
298.15 K, 101.3 kPa
Conditions	viscosity [mPa·s]
x2 = 0.069	1634
x2 = 0.143	1064
x2 = 0.223	420
x2 = 0.311	375.1
x2 = 0.404	139.5
x2 = 0.502	66.42
x2 = 0.612	29.5
x2 = 0.732	12.73
x2 = 0.852	6.71

NS(=O)(=O)O + CS(C)=O
298 K, 101.33 kPa
Conditions	viscosity [mPa·s]
x1 = 0.02135	2.438
x1 = 0.04282	3.041
x1 = 0.06425	3.822
x1 = 0.08365	4.853

OC1CCCCC1 + CS(C)=O
303.15 K, 101 kPa
Conditions	viscosity [mPa·s]
x2 = 0.1009	20.83
x2 = 0.1821	12.4
x2 = 0.2727	7.835
x2 = 0.373	5.386
x2 = 0.4703	4.069
x2 = 0.5678	3.265
x2 = 0.6724	2.732
x2 = 0.791	2.203
x2 = 0.8922	2.015

CS(C)=O + Cc1ccc(C)cc1
viscosity [mPa·s], 101 kPa
Conditions	x1 = 0.0993	x1 = 0.2067	x1 = 0.3019	x1 = 0.4	x1 = 0.5042	x1 = 0.59	x1 = 0.6956	x1 = 0.801	x1 = 0.8963
293.15 K	0.695	0.771	0.857	0.935	1.032	1.2	1.372	1.586	1.84
303.15 K	0.612	0.676	0.744	0.828	0.913	1.027	1.167	1.339	1.557
313.15 K	0.551	0.605	0.661	0.728	0.787	0.89	1.004	1.142	1.302
323.15 K	0.49	0.555	0.582	0.636	0.705	0.768	0.861	0.971	1.1

OC1CCCCC1 + Cc1ccc(Cl)cc1
303.15 K, 101 kPa
Conditions	viscosity [mPa·s]
x1 = 0.1115	4.565
x1 = 0.2202	8.427
x1 = 0.3262	12.25
x1 = 0.4296	16.24
x1 = 0.5305	20.28
x1 = 0.6289	24.45
x1 = 0.725	28.53
x1 = 0.8188	32.85
x1 = 0.9105	36.99

C1CCCCCCC1 + Cc1cccc(C)c1
viscosity [mPa·s], 101 kPa
Conditions	x2 = 0.1149	x2 = 0.1922	x2 = 0.2902	x2 = 0.412	x2 = 0.4831	x2 = 0.6078	x2 = 0.6874	x2 = 0.7916	x2 = 0.9058
308.15 K	1.376	1.182	1.004	0.8506	0.7816	0.6836	0.64	0.5877	0.5525
313.15 K	1.266	1.085	0.9357	0.7866	0.734	0.6372	0.6046	0.5645	0.5202
